The target in data set [1] is T1, PDE10A (human) (Homo sapiens, UniProt Q9Y233).
T1 construct: purchased BPS Bioscience
In words: Measurement of PDE activity (HTRF cAMP kit), human PDE10A. To be noted: PDE enzymatic reaction, substrate 20 nM for PDE10, 60 minutes at 29 C. The data set is classed as biochemical. The method, boiled down: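 HTRF detection of cAMP left after hydrolysis, expressed as percent of uninhibited control to derive IC50. Reaction: serially diluted inhibitor mixed with recombinant enzyme, started with 20 nM cAMP, 60 min at 29 °C in Tris-HCl pH 7.5 buffer containing MgCl2 and BSA.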

Data set [2] in a line: Determination of the microsomal half-life, rat liver microsomes. To be noted: for microsomal CLint at 0.5 μM: rat, liver microsomes, pH 7.4.
Method: The test substances were incubated in a concentration of 0.5 μM as follows:
0.5 μM test substance are preincubated together with liver microsomes from different species (from rat, human or other species) (0.25 mg of microsomal protein/10 in 0.05 M potassium phosphate buffer of pH 7.4 in microtiter plates at 37° C. for 5 min. The reaction is started by adding NADPH (1 mg/mL). After 0, 5, 10, 15, 20 and 30 min., 50 μl aliquots are removed, and the reaction is immediately stopped and cooled with the same volume of acetonitrile. The samples are frozen until analyzed. The remaining concentration of undegraded test substance is determined by MSMS. The half-life (T½) is determined from the gradient of the signal of test substance/unit time plot, it being possible to calculate the half-life of the test substance, assuming first order kinetics, from the decrease in the concentration of the compound with time. The microsomal clearance (mCl) is calculated from mCl=ln 2/T½/(content of microsomal protein in mg/ml)×1000 [ml/min/mg]
A short description of data set [3]: Determination of the microsomal half-life, human liver microsomes. To be noted: for microsomal CLint at 0.5 μM: human, liver microsomes, pH 7.4. (In general: Microsomes from liver hold many membrane-bound enzymes, among them those of drug oxidation.)

Counter-ions that a name gives are not always drawn.

T1 sequence (Q9Y233 whole entry): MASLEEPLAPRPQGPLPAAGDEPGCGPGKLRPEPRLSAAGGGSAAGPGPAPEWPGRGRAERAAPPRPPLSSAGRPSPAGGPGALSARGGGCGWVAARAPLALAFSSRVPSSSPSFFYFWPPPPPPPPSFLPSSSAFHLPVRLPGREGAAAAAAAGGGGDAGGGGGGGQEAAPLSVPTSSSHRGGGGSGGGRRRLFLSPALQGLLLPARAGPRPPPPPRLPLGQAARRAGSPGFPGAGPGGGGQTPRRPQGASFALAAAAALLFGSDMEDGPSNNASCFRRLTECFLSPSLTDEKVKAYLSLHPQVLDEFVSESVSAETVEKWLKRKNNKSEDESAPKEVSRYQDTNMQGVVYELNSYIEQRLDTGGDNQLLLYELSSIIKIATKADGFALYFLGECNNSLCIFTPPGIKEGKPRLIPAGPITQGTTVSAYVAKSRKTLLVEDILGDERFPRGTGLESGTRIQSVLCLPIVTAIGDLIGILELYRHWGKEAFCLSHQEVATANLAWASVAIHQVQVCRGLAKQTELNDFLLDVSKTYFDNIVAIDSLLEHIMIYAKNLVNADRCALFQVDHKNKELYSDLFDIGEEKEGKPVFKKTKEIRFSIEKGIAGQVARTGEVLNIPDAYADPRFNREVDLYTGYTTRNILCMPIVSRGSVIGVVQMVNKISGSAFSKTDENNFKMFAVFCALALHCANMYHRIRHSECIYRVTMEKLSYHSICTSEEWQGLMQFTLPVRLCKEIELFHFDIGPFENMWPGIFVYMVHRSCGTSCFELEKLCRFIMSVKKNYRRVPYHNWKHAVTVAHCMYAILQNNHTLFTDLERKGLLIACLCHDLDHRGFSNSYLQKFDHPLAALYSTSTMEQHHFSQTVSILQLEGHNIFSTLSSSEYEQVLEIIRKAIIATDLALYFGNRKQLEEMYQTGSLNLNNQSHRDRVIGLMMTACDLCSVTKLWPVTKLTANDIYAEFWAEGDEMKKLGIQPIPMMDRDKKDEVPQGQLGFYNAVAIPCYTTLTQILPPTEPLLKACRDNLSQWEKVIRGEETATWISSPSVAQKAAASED

Consider `O=C1c2c(-c3ccc(F)cc3)ccnc2CN1CCc1nc2ccccc2s1` [compound 542, 6-[2-(1,3-Benzothiazol-2-yl)ethyl]-4-(4-fluorophenyl)-7H-pyrrolo[3,4-b]pyridin-5-one trifluoroacetate], for which the IC50 in data set [1] fell in the range of 100 to 200 nM. In addition, the values for the microsomal CLint at 0.5 μM in data set [2] and in data set [3] were 100 to 220 µL/min/mg and less than 100 µL/min/mg, respectively.
In the case of `O=C1c2c(N3CCOCC3)ccnc2CN1CCc1nc(C2CC2)cs1` [compound 518, 6-[2-(4-Cyclopropylthiazol-2-yl)ethyl]-4-morpholino-7H-pyrrolo[3,4-b]pyridin-5-one], the IC50 in data set [1] was less than 100 nM. The microsomal CLint at 0.5 μM in data set [2] is 100 to 220 µL/min/mg; in data set [3], less than 100 µL/min/mg.
As to `O=C1c2c(-c3ccncc3)ccnc2CN1CCc1nc2ccccc2s1` [Example 375, 6-(2-Benzothiazol-2-yl-ethyl)-4-pyridin-4-yl-6,7-dihydro-pyrrolo[3,4-b]pyridin-5-one], in data set [1], the IC50 was less than 100 nM. Further, the microsomal CLint at 0.5 μM in data set [2] and in data set [3] was less than 100 µL/min/mg each time.
Regarding `COc1ccc(N2CCN(C)CC2)c2c1CN(CCc1ccc3ccccc3n1)C2=O` [Example 261, 4-Methoxy-7-(4-methyl-piperazin-1-yl)-2-(2-quinolin-2-yl-ethyl)-2,3-dihydro-isoindol-1-one di-trifluoroacetate], in data set [1], the 50% inhibitory concentration (IC50) is less than 100 nM. In addition, the microsomal CLint at 0.5 μM in data set [2] was greater than 220 µL/min/mg; in data set [3] it was less than 100 µL/min/mg.
For the compound `O=C1c2c(cccc2N2CCS(=O)(=O)CC2)CN1CCc1ccc2ccccc2n1` [Example 104, 7-(1,1-Dioxo-1-thiomorpholin-4-yl)-2-(2-quinolin-2-yl-ethyl)-2,3-dihydro-isoindol-1-one], in data set [1], the concentration for half-maximal inhibition (IC50) was less than 100 nM. Moreover, the microsomal CLint at 0.5 μM in data set [2] and in data set [3] was less than 100 µL/min/mg in each case.
Take `CN1CCN(c2ccnc3c2C(=O)N(CCc2ccc4ccccc4n2)C3)CC1` [Example 138, 4-(4-Methyl-piperazin-1-yl)-6-(2-quinolin-2-yl-ethyl)-6,7-dihydro-pyrrolo[3,4-b]pyridin-5-one]: in data set [1], the IC50 is less than 100 nM. For the same compound, the microsomal CLint at 0.5 μM in data set [2] and in data set [3] was less than 100 µL/min/mg each time.
In data set [1], `O=C(O)C(F)(F)F.O=C(O)C(F)(F)F.O=C1c2c(-c3ccc(F)cc3)ccnc2CN1CCc1ccc2ccccc2n1` [Example 160, 4-(4-Fluoro-phenyl)-6-(2-quinolin-2-yl-ethyl)-6,7-dihydro-pyrrolo[3,4-b]pyridin-5-one (di trifluoroacetate)] returned an IC50 of less than 100 nM. Besides, the “Rat mCl (mikrosomal clearance)” value in data set [2] (rat liver microsomes, 0.5 μM test substance, 0.25 mg microsomal protein, pH 7.4, 37° C., NADPH) is “∘ (∘ not avialable or >220 μl min^−1 mg^−1)”. In addition, the “Human mCl (mikrosomal clearance)” value in data set [3] (human liver microsomes, 0.5 μM test substance, 0.25 mg microsomal protein, pH 7.4, 37° C., NADPH) was “+ (+: 100-220 μl min^−1 mg^−1)”.
In turn, `[2H]C1([2H])OC([2H])([2H])C([2H])([2H])N(c2ccnc3c2C(=O)N(CCc2ccc4ccccc4n2)C3)C1([2H])[2H]` [compound 485, 4-(2,2,3,3,5,5,6,6-Octadeuteriomorpholin-4-yl)-6-[2-(2-quinolyl)ethyl]-7H-pyrrolo[3,4-b]pyridin-5-one] yielded an IC50 in data set [1] of less than 100 nM. Further, the microsomal CLint at 0.5 μM in data set [2] and in data set [3] was 100 to 220 µL/min/mg throughout.
Take `Cc1c(-c2ccnc3c2C(=O)N(CCc2ccc4ccccc4n2)C3)cnn1C` [Example 332, 4-(1,5-Dimethyl-1H-pyrazol-4-yl)-6-(2-quinolin-2-yl-ethyl)-6,7-dihydro-pyrrolo[3,4-b]pyridin-5-one]: the IC50 in data set [1] was less than 100 nM. Besides, the intrinsic metabolic clearance (microsomal CLint) at 0.5 μM in data set [2] and in data set [3] was less than 100 µL/min/mg in each case.
Regarding `COc1ccc(-c2cccc3c2C(=O)N(CCc2ccc4ccccc4n2)C3)cn1` [Example 54, 7-(6-Methoxy-pyridin-3-yl)-2-(2-quinolin-2-yl-ethyl)-2,3-dihydro-isoindol-1-one], in data set [1], the IC50 is less than 100 nM. Moreover, the microsomal CLint at 0.5 μM in data set [2] and in data set [3] was 100 to 220 µL/min/mg in each case.
Take `COc1ccc(N2CCS(=O)(=O)CC2)c2c1CN(CCc1ccc3ccccc3n1)C2=O` [Example 189, 7-(1,1-Dioxo-thiomorpholin-4-yl)-4-methoxy-2-(2-quinolin-2-yl-ethyl)-2,3-dihydro-isoindol-1-one]: in data set [1], the IC50 is less than 100 nM. The microsomal CLint at 0.5 μM in data set [2] and in data set [3] was 100 to 220 µL/min/mg in each case.
Turning to `COc1ccc2nc(CCN3Cc4cccc(N5CCOCC5)c4C3=O)ccc2c1` [Example 116, 2-[2-(6-Methoxy-quinolin-2-yl)-ethyl]-7-morpholin-4-yl-2,3-dihydro-isoindol-1-one hydrochloride], the IC50 in data set [1] was less than 100 nM. Besides, the intrinsic clearance (microsomal CLint) at 0.5 μM is less than 100 µL/min/mg in data set [2] and 100 to 220 µL/min/mg in data set [3].
On the same counts, the results for `O=C1c2nccc(-c3ccncc3)c2CN1CCc1cn2ccccc2n1` [compound 452, 6-(2-Imidazo[1,2-a]pyridin-2-yl-ethyl)-4-pyridin-4-yl-5,6-dihydro-pyrrolo[3,4-b]pyridin-7-one] are 200 to 500 nM, less than 100 µL/min/mg and less than 100 µL/min/mg.
As to `Cc1ccc2c(c1)nc(CCN1Cc3nccc(N4CCOCC4)c3C1=O)n2C` [compound 415, 6-[2-(1,5-Dimethyl-1H-benzoimidazol-2-yl)-ethyl]-4-morpholin-4-yl-6,7-dihydro-pyrrolo[3,4-b]pyridin-5-one], in data set [1], the IC50 was less than 100 nM. Moreover, the microsomal CLint at 0.5 μM in data set [2] and in data set [3] was less than 100 µL/min/mg each time.
`O=C1c2nccc(-c3cccnc3)c2CN1CCc1ccc2ccccc2n1` [compound 463, 4-Pyridin-3-yl-6-(2-quinolin-2-yl-ethyl)-5,6-dihydro-pyrrolo[3,4-b]pyridin-7-one trifluoroacetate] registered a half-inhibitory concentration (IC50) in data set [1] of 100 to 200 nM. Moreover, the microsomal CLint at 0.5 μM in data set [2] and in data set [3] was less than 100 µL/min/mg each time.
Turning to `O=C1c2c(cccc2NC2CCS(=O)(=O)C2)CN1CCc1ccc2ccccc2n1` (stereo not drawn) [Example 190, 7-(1,1-Dioxo-tetrahydro-thiophen-3-ylamino)-2-(2-quinolin-2-yl-ethyl)-2,3-dihydro-isoindol-1-one], the half-maximal inhibitory concentration (IC50) in data set [1] lay in the range of 100 to 200 nM. Moreover, the microsomal CLint at 0.5 μM in data set [2] and in data set [3] was 100 to 220 µL/min/mg throughout.
Compound `Cc1ncc(-c2ccnc3c2C(=O)N(CCc2nc4ccccc4s2)C3)cn1` [compound 445, 6-[2-(1,3-Benzothiazol-2-yl)ethyl]-4-(2-methylpyrimidin-5-yl)-7H-pyrrolo[3,4-b]pyridin-5-one] returned an IC50 in data set [1] of 100 to 200 nM. For the same compound, the microsomal CLint at 0.5 μM in data set [2] and in data set [3] was less than 100 µL/min/mg throughout.
`O=C1c2c(N3CCOCC3)ccc(F)c2CN1CCc1cn2ccccc2n1` [Example 295, 4-Fluoro-2-(2-imidazo[1,2-a]pyridin-2-yl-ethyl)-7-morpholin-4-yl-2,3-dihydro-isoindol-1-one] came in with an IC50 in data set [1] of less than 100 nM. Moreover, the microsomal CLint at 0.5 μM in data set [2] and in data set [3] was less than 100 µL/min/mg in each case.
`COc1ccc(-c2cncnc2)c2c1CN(CCc1ccc3ccccc3n1)C2=O` [Example 183, 4-Methoxy-7-pyrimidin-5-yl-2-(2-quinolin-2-yl-ethyl)-2,3-dihydro-isoindol-1-one] yielded a 50% inhibitory concentration (IC50) in data set [1] of less than 100 nM. Further, the intrinsic clearance (microsomal CLint) at 0.5 μM in data set [2] and in data set [3] was 100 to 220 µL/min/mg each time.
Consider `O=C1c2c(cccc2-c2ccncc2)CN1CCc1cn2ccccc2n1` [Example 20, 2-(2-Imidazo[1,2-a]pyridin-2-yl-ethyl)-7-pyridin-4-yl-2,3-dihydro-isoindol-1-one], for which, in data set [1], the IC50 is less than 100 nM. In addition, the microsomal CLint at 0.5 μM in data set [2] and in data set [3] was less than 100 µL/min/mg throughout.
On to `O=C1c2c(N3CCS(=O)(=O)CC3)ccnc2CN1CCc1nc2ccccc2s1` [compound 390, 6-[2-(1,3-Benzothiazol-2-yl)ethyl]-4-(1,1-dioxo-1,4-thiazinan-4-yl)-7H-pyrrolo[3,4-b]pyridin-5-one trifluoroacetate], for which the IC50 in data set [1] is less than 100 nM. Besides, the microsomal CLint at 0.5 μM in data set [2] was 100 to 220 µL/min/mg; in data set [3] it was less than 100 µL/min/mg.
For `O=C1c2c(NC3COC3)ccnc2CN1CCc1nc2ccccc2s1` [Example 376, 6-(2-Benzothiazol-2-yl-ethyl)-4-(oxetan-3-ylamino)-6,7-dihydro-pyrrolo[3,4-b]pyridin-5-one], in that order: less than 100 nM, less than 100 µL/min/mg and less than 100 µL/min/mg.
Regarding `O=C1c2c(N3CCC(CF)C3)ccnc2CN1CCc1cn2ccccc2n1` (stereo not drawn) [compound 384, 4-[3-(Fluoromethyl)pyrrolidin-1-yl]-6-(2-imidazo[1,2-a]pyridin-2-ylethyl)-7H-pyrrolo[3,4-b]pyridin-5-one], the IC50 in data set [1] is less than 100 nM. Besides, the microsomal CLint at 0.5 μM in data set [2] is 100 to 220 µL/min/mg; in data set [3] it was less than 100 µL/min/mg.
For `O=C1c2cccc(N3CCS(=O)(=O)CC3)c2C(=O)N1CCc1ccc2ccccc2n1` [Example 250, 4-(1,1-Dioxothiomorpholin-4-yl)-2-(2-quinolin-2-yl-ethyl)-isoindole-1,3-dione], in that order: less than 100 nM, greater than 220 µL/min/mg and 100 to 220 µL/min/mg.
For `Cn1nccc1-c1ccnc2c1C(=O)N(CCc1cn3ccccc3n1)C2` [Example 255, 6-(2-Imidazo[1,2-a]pyridin-2-yl-ethyl)-4-(2-methyl-2H-pyrazol-3-yl)-6,7-dihydro-pyrrolo[3,4-b]pyridin-5-one], in that order: 100 to 200 nM, less than 100 µL/min/mg and less than 100 µL/min/mg.

As usually defined, the IC50 is the concentration that gives 50% inhibition. A high value points to lower potency. One may read the microsomal CLint as the rate of metabolic loss divided by the concentration. Read a high microsomal CLint as rapid turnover.

The record behind these values is patent US9938269B2, “Inhibitor compounds of phosphodiesterase type 10A” (ABBVIE INC., priority 2011, dated 2018).
